Reference: PMC10451632, “Site Mutation Improves the Expression and Antimicrobial Properties of Fungal Defense” (Antibiotics, 2023)
≈ marks a conversion by molar mass, not a printed value. Read-outs that look alike come from different tables or passages of the source. Marks after values point to notes of the source that are not given here.

How the values were obtained:
S. aureus ATCC 43300 [1] = assay: Time-killing curves; format: cell-based, Staphylococcus aureus
Method: S. aureus ATCC 43300 was cultured to the logarithmic stage, MHB medium was used for adjusting the concentration of bacterial suspension, and PN7 (1×, 2× and 4× MIC), Plectasin (1×, 2× and 4× MIC) and 2× MIC vancomycin (the MIC was 1 μg/mL) were added into the suspensions containing 10^5 CFU/mL bacteria (after the count of viable bacteria detection, the initial inoculation amount was 5.15 Log10 CFU/mL), cultured at 37 °C and 250 rpm. A 100 CFU/mL is considered the detection limit. […] In contrast, the count was reduced by 1.6 Log10 CFU/mL after treatment with 2× MIC vancomycin, an approximately 66% population decrease of target pathogens compared with the PN7 treatment group at the same time point of the second hour. After 4 h, the colony number of the peptide treatment group was almost 0, while that of the vancomycin treatment group was 0 after 8 h, at 4 h later than the PN7 treatment. At 24 h, the number of colonies of only 1× MIC Plectasin treatment group rebounded, while no such phenomenon occurred in the other treatment groups.
S. aureus ATCC 43300 was cultured to the logarithmic stage. MHB medium adjusted the concentration of bacterial suspension, and PN7 (1×, 2× and 4× MIC) was added into the suspensions containing 10^5 CFU/mL bacteria, cultured at 37 °C and 250 rpm. 1×, 2×, 4× MIC Plectasin and 2× MIC vancomycin were used as positive controls, and the group treated without antibiotics was used as the blank controls. Then, 100 μL samples were taken at different time points and were continuously diluted and coated on MHA medium for colony counting. A 100 CFU/mL is considered the detection limit.

S. aureus ATCC 43300 [2] = assay: Membrane permeability, PI staining by FACS; format: cell-based, Staphylococcus aureus; details: 2× MIC, 10^8 CFU/mL, 37 °C
Method: Figure 8 In vitro antimicrobial analysis of PN7. (A): Time-kill curve of PN7, Plectasin, and vancomycin against S. aureus ATCC. All experiments were performed in triplicate. (B): The PAE of 1×, 2× and 4× MIC of PN7 and vancomycin against S. aureus ATCC 43300 (the MIC values of PN7 and vancomycin against S. aureus ATCC 43300 were 8 μg/mL and 1μg/mL, respectively). All experiments were performed in triplicate. (C): The morphological influence of PN7 on S. aureus ATCC 43300 was observed by SEM. (D,E): The effects of PN7 (D) and Plectasin (E)) on membrane permeability were analyzed by FACS. The logarithmic phase S. aureus ATCC 43300 cells (10^8 CFU/mL) were incubated with or without 2× MIC peptide solutions at 37 °C at different times. All experiments were performed in triplicate. Ple stands for the Plectasin treatment group, Van stands for the vancomycin treatment group, and CK stands for the untreated group. TEXT PRINTED IN THE PICTURE: (D) PN7: 34.4% (2×; 90min); 31.2% (2×; 75min); 30.4% (2×; 60min); 19.2% (2×; 45min); 16.7% (2×; 30min); 1.94% (2×; 15min) | (E) Ple: 32.0% (2×; 90min); 27.4% (2×; 75min); 25.2% (2×; 60min); 12.8% (2×; 45min); 12.0% (2×; 30min); 2.11% (2×; 15min) DOUBTS OF THE COPYIST ABOUT THIS PICTURE: Panels D and E: the picture prints no measure for the percentages, only labels such as "2×PN7-90min: 34.4%" / Panels D and E: "CK: 0.54%" is the untreated control, not a substance, and was left out
The fluorescent dye propidium iodide (PI; Solarbio, Beijing, China) was used to detect the effect of PN7 on the membrane permeability of Staphylococcus aureus. The test method refers to the descriptions in previous studies.

E. coli O157 = details: data cited from previous results; cited from earlier work
Text: (§1) Table 6 Antibacterial spectrum (MIC). | column: MIC (μg/mL) / Plectasin

[3] = test system: Escherichia coli CVCC 195; details: data cited from previous results; cited from earlier work
Text: as §1

P. aeruginosa CICC 21630 = details: data cited from previous results; cited from earlier work
Text: as §1

S. aureus CVCC 546 = details: data cited from previous results; cited from earlier work
Text: as §1

S. aureus E48 = details: data cited from previous results; cited from earlier work
Text: as §1

S. pullorum CVCC 1789 = details: data cited from previous results; cited from earlier work
Text: as §1

[4] = test system: Staphylococcus aureus ATCC 43300; details: data cited from previous results; cited from earlier work
Text: as §1

[5] = test system: Streptococcus. suis CVCC 606; details: data cited from previous results; cited from earlier work
Text: as §1

[6] = test system: Staphylococcus aureus ATCC 43300; assay: microbe, parasite or virus in culture; format: cell-based; details: Staphylococcus aureus, ATCC43300; microtiter broth dilution, MHB, 10^5 CFUs/mL, 16–18 h at 37 °C; read-out: MIC
Method: The experimental operation of the expression of the Plectasin variant in P. pastoris in well plates, shaking flasks, and 5 L level fermentation was performed as referenced in previous studies. Candidates were identified through three different levels of screening. Firstly, a large number of transformants were screened through well plates to induce expression and determined by the inhibition zone assay (against S. aureus ATCC 43300). Secondly, the transformants with obvious inhibition zones were sequenced to obtain protein sequence information, then induced expression at the shake level. The supernatant was collected and purified to obtain the target protein; the anti-Staphylococcus aureus activity of the protein was detected by a MIC assay. Finally, the codons of candidate sequences were optimized, the expression vector was reconstructed, the optimal transformers were obtained, and the high-density cultivation was performed in a 5 L fermenter. The final agent was determined by high protein yield and good activity (Figure 2).
The MIC value of PN7 against bacteria was determined by the microtiter broth dilution method. Briefly, bacteria grown to the exponential phase were diluted into MHB; subsequently, 90 μL of bacterial suspension (10^5 CFUs/mL) was mixed with 10 μL of different concentrations of PN7 in a sterilized 96-well microtiter plate (Nunc). MIC values were recorded after incubation for 16–18 h at 37 °C based on the lowest concentrations of peptides in which no visible bacterial growth was observed.

S. aureus ATCC 43300 [7] = assay: Post antibiotic effect (PAE); format: cell-based, Staphylococcus aureus; details: triplicate
Text: The post-antibiotic effect reflects the inhibitory effect on the growth of pathogenic bacteria after short contact with drugs, which is related to the strength of the bactericidal activity of drugs. The test method of the PAE of PN7 against S. aureus ATCC 43300 refers to the descriptions in previous studies.

In the case of `CC[C@H](C)[C@@H]1NC(=O)[C@H](CO)NC(=O)[C@H](CCCCN)NC(=O)[C@@H]2CSSC[C@@H](C(=O)N[C@@H](Cc3ccc(O)cc3)C(=O)O)NC(=O)[C@H](CCCCN)NC(=O)[C@@H]3CSSC[C@H](NC(=O)[C@H](CCC(N)=O)NC(=O)[C@H](CCSC)NC(=O)[C@H](CC(=O)O)NC(=O)[C@H](CC(=O)O)NC(=O)[C@H](CCC(=O)O)NC(=O)[C@H](CC(=O)O)NC(=O)[C@H](Cc4c[nH]c5ccccc45)NC(=O)[C@@H]4CCCN4C(=O)CNC(=O)[C@H](CC(N)=O)NC(=O)[C@@H](NC(=O)CNC(=O)[C@H](Cc4ccccc4)NC(=O)CN)CSSC[C@H](NC(=O)[C@H](Cc4ccc(O)cc4)NC(=O)CNC(=O)CNC(=O)[C@H](CCCCN)NC(=O)[C@H](Cc4ccc(O)cc4)NC(=O)CNC(=O)[C@H](CCCCN)NC1=O)C(=O)N[C@@H](C)C(=O)N[C@@H](CCCCN)C(=O)NCC(=O)NCC(=O)N[C@@H](Cc1ccccc1)C(=O)N[C@@H](C(C)C)C(=O)N3)C(=O)N[C@@H](Cc1c[nH]cn1)C(=O)N[C@@H](CC(N)=O)C(=O)N[C@@H](Cc1c[nH]cn1)C(=O)N2` [Plectasin], the “number of colonies at 24 h” value (S. aureus ATCC 43300 [1]; 1× MIC, time-kill) is reported as “rebounded”, the “PI-staining percentage of cells” value (S. aureus ATCC 43300 [2]; 30 min) is reported as 12.0% and the “PI-staining percentage of cells” value (S. aureus ATCC 43300 [2]; 60 min) is reported as 25.2%. The “PI-staining percentage of cells” value (S. aureus ATCC 43300 [2]; 90 min) was 32.0%, the MIC (E. coli O157) was >128 ^a μg/mL and the MIC [3] was >128 ^a μg/mL. The MIC (P. aeruginosa CICC 21630) was >128 ^a μg/mL, the MIC (S. aureus CVCC 546) was 16 ^a μg/mL and the MIC (S. aureus E48) was 4 ^a μg/mL. For the same compound, the MIC (S. pullorum CVCC 1789) was >128 ^a μg/mL, the MIC [4] was 4 ^a μg/mL and the MIC [5] was 1 ^a μg/mL.
For `CN[C@H](CC(C)C)C(=O)N[C@H]1C(=O)N[C@@H](CC(N)=O)C(=O)N[C@H]2C(=O)N[C@H]3C(=O)N[C@H](C(=O)N[C@H](C(=O)O)c4cc(O)cc(O)c4-c4cc3ccc4O)[C@H](O)c3ccc(c(Cl)c3)Oc3cc2cc(c3O[C@@H]2O[C@H](CO)[C@@H](O)[C@H](O)[C@H]2O[C@H]2C[C@](C)(N)[C@H](O)[C@H](C)O2)Oc2ccc(cc2Cl)[C@H]1O` [vancomycin, reference compound], the MIC [6] was 1 µg/mL (≈ 0.69 µM), the “reduction of bacterial counts during the first two hours” value (S. aureus ATCC 43300 [1]; 2× MIC, initial inoculum 5.15 Log10 CFU/mL, MHB, 37 °C, 250 rpm, triplicate) was 1.6 Log10 CFU/mL and the “time to kill 99% of S. aureus ATCC 43300” value (S. aureus ATCC 43300 [1]; time-kill, 2× MIC) was 8 h. For the same compound, the “time after which the colony number was (almost) 0” value (S. aureus ATCC 43300 [1]; time-kill, detection limit 100 CFU/mL, vancomycin at 2× MIC) was 8 h, the PAE (S. aureus ATCC 43300 [7]; 1× MIC) was 0.11 h and the PAE (S. aureus ATCC 43300 [7]; 2× MIC) was 0.54 h. For the same compound, the PAE (S. aureus ATCC 43300 [7]; 4× MIC) was 0.78 h.
